Experimental findings from ChEMBL document CHEMBL5360618, “PepScaf: Harnessing Machine Learning with In Vitro Selection toward De Novo Macrocyclic Peptides against IL-17C/IL-17RE Interaction” (J Med Chem, 2023) are described below.

Positions of bridges follow the written chain, without caps; N, C: chain ends. Residues, ends and D or L forms follow the SMILES beside them. Some results are limits rather than exact numbers.

For the assay, the target named is T1, IL17-RE-IL-17C (Homo sapiens, UniProt Q8NFR9+Q9P0M4).
T1 sequence (Q9P0M4 whole entry): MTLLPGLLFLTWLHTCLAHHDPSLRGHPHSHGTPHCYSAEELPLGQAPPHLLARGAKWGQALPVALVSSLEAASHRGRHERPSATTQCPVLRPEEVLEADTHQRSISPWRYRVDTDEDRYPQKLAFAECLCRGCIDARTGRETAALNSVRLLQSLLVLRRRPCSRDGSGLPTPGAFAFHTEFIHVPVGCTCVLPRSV
T1 sequence (Q8NFR9 whole entry): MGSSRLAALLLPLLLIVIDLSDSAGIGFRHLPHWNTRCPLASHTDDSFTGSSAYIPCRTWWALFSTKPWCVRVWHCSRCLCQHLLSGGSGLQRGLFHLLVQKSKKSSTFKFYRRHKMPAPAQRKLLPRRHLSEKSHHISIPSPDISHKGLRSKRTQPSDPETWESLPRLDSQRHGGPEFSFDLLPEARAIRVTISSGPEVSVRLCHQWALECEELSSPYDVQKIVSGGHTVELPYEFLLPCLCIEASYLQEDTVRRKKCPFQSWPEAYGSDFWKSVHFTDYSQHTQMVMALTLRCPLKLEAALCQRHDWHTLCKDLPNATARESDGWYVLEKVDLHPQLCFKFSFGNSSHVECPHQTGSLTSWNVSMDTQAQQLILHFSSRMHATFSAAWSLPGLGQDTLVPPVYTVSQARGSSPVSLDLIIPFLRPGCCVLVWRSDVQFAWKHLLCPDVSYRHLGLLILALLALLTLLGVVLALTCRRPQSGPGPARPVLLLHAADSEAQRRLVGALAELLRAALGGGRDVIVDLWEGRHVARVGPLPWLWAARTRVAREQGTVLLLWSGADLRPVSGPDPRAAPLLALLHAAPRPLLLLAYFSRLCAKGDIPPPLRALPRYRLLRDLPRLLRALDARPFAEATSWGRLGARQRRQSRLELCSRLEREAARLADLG
The experiment in a line: Inhibition of IL-17C/IL-17RE interaction (unknown origin) incubated for 1.5 hrs by ELISA method. The class given is protein-complex assay. A general note: An ELISA detects its analyte on a solid surface through an enzyme-linked reagent.
For `CC[C@H](C)[C@@H]1NC(=O)[C@H](CCCNC(=N)N)NC(=O)[C@H](Cc2ccc(O)cc2)NC(=O)[C@H](Cc2ccc(O)cc2)NC(=O)[C@H](Cc2c[nH]cn2)NC(=O)[C@H](Cc2c[nH]cn2)NC(=O)[C@H](Cc2ccc(O)cc2)NC(=O)CSC[C@@H](C(=O)NCC(N)=O)NC(=O)CNC(=O)[C@H](C)NC(=O)[C@H](CCC(=O)O)NC(=O)CNC(=O)[C@H](Cc2ccc(O)cc2)NC(=O)[C@H](CC(C)C)NC1=O` ({CH2CO}-YHHYYRILYGEAGCG-NH2; thioether N-14), the half-maximal inhibitory concentration (IC50) (usually the concentration needed to halve the response being measured) was > 30000 nM.

`CC(C)C[C@@H]1NC(=O)[C@H](CCC(=O)O)NC(=O)CNC(=O)[C@H](Cc2ccc(O)cc2)NC(=O)[C@H](CC(C)C)NC(=O)[C@H](Cc2ccccc2)NC(=O)[C@H](CCCNC(=N)N)NC(=O)[C@H](Cc2ccc(O)cc2)NC(=O)[C@H](Cc2ccc(O)cc2)NC(=O)[C@H](Cc2c[nH]cn2)NC(=O)[C@H](Cc2c[nH]cn2)NC(=O)[C@H](Cc2ccc(O)cc2)NC(=O)CSC[C@@H](C(=O)NCC(N)=O)NC(=O)CNC1=O` ({CH2CO}-YHHYYRFLYGELGCG-NH2; thioether N-14): the half-maximal inhibitory concentration (IC50) was 1670 nM.

As to `CC[C@H](C)[C@@H]1NC(=O)[C@H](Cc2c[nH]cn2)NC(=O)[C@H](Cc2ccc(O)cc2)NC(=O)CSC[C@@H](C(=O)NCC(N)=O)NC(=O)CNC(=O)[C@H](CC(C)C)NC(=O)[C@H](CCCNC(=N)N)NC(=O)CNC(=O)[C@H](Cc2ccc(O)cc2)NC(=O)[C@H](CC(C)C)NC(=O)[C@H](CO)NC(=O)[C@H](Cc2ccccc2)NC(=O)[C@H](Cc2ccc(O)cc2)NC(=O)[C@H](Cc2ccc(O)cc2)NC1=O` ({CH2CO}-YHIYYFSLYGRLGCG-NH2; thioether N-14), the concentration for half-maximal inhibition (IC50) was 3 nM.

Regarding `CC(C)C[C@@H]1NC(=O)[C@H](CO)NC(=O)CNC(=O)[C@H](Cc2ccc(O)cc2)NC(=O)[C@H](CC(C)C)NC(=O)[C@H](CO)NC(=O)[C@H](CCC(N)=O)NC(=O)[C@H](Cc2ccc(O)cc2)NC(=O)[C@H](Cc2ccc(O)cc2)NC(=O)[C@H](C(C)C)NC(=O)[C@H](Cc2c[nH]cn2)NC(=O)[C@H](Cc2ccc(O)cc2)NC(=O)CSC[C@@H](C(=O)NCC(N)=O)NC(=O)CNC1=O` ({CH2CO}-YHVYYQSLYGSLGCG-NH2; thioether N-14), half-maximal inhibition (IC50) was put at 7.9 nM.

`CC[C@H](C)[C@@H]1NC(=O)[C@H](Cc2c[nH]cn2)NC(=O)[C@H](Cc2ccc(O)cc2)NC(=O)CSC[C@@H](C(=O)NCC(N)=O)NC(=O)CNC(=O)[C@H](CC(C)C)NC(=O)[C@H](CC(C)C)NC(=O)CNC(=O)[C@H](Cc2ccc(O)cc2)NC(=O)[C@H](CC(C)C)NC(=O)[C@H](CO)NC(=O)[C@H](C)NC(=O)[C@H](Cc2ccc(O)cc2)NC(=O)[C@H](Cc2ccc(O)cc2)NC1=O` ({CH2CO}-YHIYYASLYGLLGCG-NH2; thioether N-14) showed a half-maximal inhibitory concentration (IC50) of 12 nM. This IC50 lies about 1.5-fold higher than the previous one.

For `CC[C@H](C)[C@@H]1NC(=O)[C@H](CCCNC(=N)N)NC(=O)[C@H](C)NC(=O)[C@H](Cc2ccc(O)cc2)NC(=O)[C@H](Cc2c[nH]cn2)NC(=O)[C@H](Cc2c[nH]cn2)NC(=O)[C@H](Cc2ccc(O)cc2)NC(=O)CSC[C@@H](C(=O)NCC(N)=O)NC(=O)CNC(=O)[C@H](CC(C)C)NC(=O)[C@H](CCC(=O)O)NC(=O)CNC(=O)[C@H](Cc2ccc(O)cc2)NC(=O)[C@H](CC(C)C)NC1=O` ({CH2CO}-YHHYARILYGELGCG-NH2; thioether N-14), the IC50 is > 30000 nM.

`CC[C@H](C)[C@@H]1NC(=O)[C@H](Cc2c[nH]cn2)NC(=O)[C@H](Cc2ccc(O)cc2)NC(=O)CSC[C@@H](C(=O)NCC(N)=O)NC(=O)CNC(=O)[C@H](CC(C)C)NC(=O)[C@H]([C@H](C)O)NC(=O)CNC(=O)[C@H](Cc2ccc(O)cc2)NC(=O)[C@H](CC(C)C)NC(=O)[C@H](CO)NC(=O)[C@H](Cc2ccc(O)cc2)NC(=O)[C@H](Cc2ccc(O)cc2)NC(=O)[C@H](Cc2ccc(O)cc2)NC1=O`: the IC50 worked out at 2.9 nM.

On to `CC[C@H](C)[C@@H]1NC(=O)[C@H](Cc2c[nH]c3ccccc23)NC(=O)[C@H](C)NC(=O)[C@H](CC(=O)O)NC(=O)[C@H](Cc2ccccc2)NC(=O)[C@H](Cc2c[nH]cn2)NC(=O)[C@H](Cc2ccc(O)cc2)NC(=O)CSC[C@@H](C(=O)NCC(N)=O)NC(=O)[C@H](CC(C)C)NC(=O)[C@H](CO)NC(=O)[C@H](CCCNC(=N)N)NC(=O)[C@H](C)NC1=O` ({CH2CO}-YHFDAWIARSLCG-NH2; thioether N-12), for which the concentration for half-maximal inhibition (IC50) was > 30000 nM.

As to `CC(C)C[C@@H]1NC(=O)[C@H](Cc2ccc(O)cc2)NC(=O)[C@H](CC(=O)O)NC(=O)[C@H](CCCCN)NC(=O)[C@H](CC(C)C)NC(=O)[C@H](Cc2c[nH]c3ccccc23)NC(=O)[C@H](C)NC(=O)[C@H](CC(=O)O)NC(=O)[C@H](Cc2ccccc2)NC(=O)[C@H](Cc2c[nH]cn2)NC(=O)[C@H](Cc2ccc(O)cc2)NC(=O)CSC[C@@H](C(=O)NCC(N)=O)NC(=O)CNC1=O` ({CH2CO}-YHFDAWLKDYLGCG-NH2; thioether N-13), the half-maximal inhibitory concentration (IC50) was > 30000 nM.

For `CC(C)C[C@@H]1NC(=O)[C@H](CCC(=O)O)NC(=O)CNC(=O)[C@H](Cc2ccc(O)cc2)NC(=O)[C@H](CC(C)C)NC(=O)[C@H]([C@@H](C)O)NC(=O)[C@H](CCCNC(=N)N)NC(=O)[C@H](Cc2ccc(O)cc2)NC(=O)[C@H](Cc2ccc(O)cc2)NC(=O)[C@H](Cc2c[nH]cn2)NC(=O)[C@H](Cc2c[nH]cn2)NC(=O)[C@H](Cc2ccc(O)cc2)NC(=O)CSC[C@@H](C(=O)NCC(N)=O)NC(=O)CNC1=O` ({CH2CO}-YHHYYRTLYGELGCG-NH2; thioether N-14), the half-maximal inhibitory concentration (IC50) came out at 288 nM.

Take `CC[C@H](C)[C@@H]1NC(=O)[C@H](CCCNC(=N)N)NC(=O)[C@H](Cc2ccc(O)cc2)NC(=O)[C@H](Cc2ccc(O)cc2)NC(=O)[C@H](Cc2c[nH]cn2)NC(=O)[C@H](Cc2c[nH]cn2)NC(=O)[C@H](Cc2ccc(O)cc2)NC(=O)CSC[C@@H](C(=O)NCC(N)=O)NC(=O)CNC(=O)[C@H](CC(C)C)NC(=O)[C@H](C)NC(=O)CNC(=O)[C@H](Cc2ccc(O)cc2)NC(=O)[C@H](CC(C)C)NC1=O` ({CH2CO}-YHHYYRILYGALGCG-NH2; thioether N-14): the IC50 is 180 nM.

For `CC(C)C[C@@H]1NC(=O)[C@H](Cc2c[nH]c3ccccc23)NC(=O)[C@H](Cc2ccccc2)NC(=O)[C@H](CC(N)=O)NC(=O)[C@H](Cc2ccc(O)cc2)NC(=O)[C@H](CO)NC(=O)[C@H](Cc2ccc(O)cc2)NC(=O)[C@H](CCCNC(=N)N)NC(=O)[C@H](CC(C)C)NC(=O)[C@H](CC(=O)O)NC(=O)[C@H](Cc2ccc(O)cc2)NC(=O)CSC[C@@H](C(=O)NCC(N)=O)NC(=O)[C@H](C)NC1=O` ({CH2CO}-YDLRYSYNFWLACG-NH2; thioether N-13), the IC50 is > 30000 nM.

In turn, `CC[C@H](C)[C@@H]1NC(=O)[C@H](Cc2c[nH]cn2)NC(=O)[C@H](Cc2ccc(O)cc2)NC(=O)CSC[C@@H](C(=O)NCC(N)=O)NC(=O)CNC(=O)[C@H](CC(C)C)NC(=O)[C@H](CCCCN)NC(=O)[C@H](CCC(N)=O)NC(=O)[C@H](Cc2ccc(O)cc2)NC(=O)[C@H]([C@@H](C)CC)NC(=O)[C@H](CCC(N)=O)NC(=O)[C@H](CCCNC(=N)N)NC(=O)[C@H](Cc2ccc(O)cc2)NC(=O)[C@H](Cc2ccc(O)cc2)NC1=O` ({CH2CO}-YHIYYRQIYQKLGCG-NH2; thioether N-14) yielded an IC50 of 328 nM.

`CC[C@H](C)[C@@H]1NC(=O)[C@H](Cc2cnc[nH]2)NC(=O)[C@H](Cc2ccc(O)cc2)NC(=O)CSC[C@@H](C(=O)NCC(N)=O)NC(=O)CNC(=O)[C@H](CC(C)C)NC(=O)[C@H](CO)NC(=O)CNC(=O)[C@H](Cc2ccc(O)cc2)NC(=O)[C@H](CC(C)C)NC(=O)[C@H](CO)NC(=O)[C@H](C)NC(=O)[C@H](Cc2ccc(O)cc2)NC(=O)[C@@H](Cc2ccc(O)cc2)NC1=O` yielded an IC50 of 4.9 nM. This IC50 lies about 67-fold lower than the previous one.
